Assay: Stability across narrow pH 2-3.6 (1 mg/mL; 10 mM citric acid and glycine)
Type: physicochemical
Parameters: Assay: unit not given here
Details: for Impurities: in %
Experimental: Buffer solutions containing ca. 10 mM each of citric acid and glycine in the pH range 2-3.6 were prepared by titrating 250 mL of a single stock containing both buffer agents with 1N NaOH/1N HCl and removing 50 mL aliquots at predetermined pH values. (XXXVI) solutions at 1 mg/mL were prepared in the buffers by dissolving ˜25 mg of (XXXVI) in ca. 23 mL of a given buffer, adjusting the pH to the target and making up the volume to 25.0 mL in a volumetric flask. Each of the buffered (XXXV) solutions was filtered through a 0.2 μm polyether sulfone syringe filter into a volumetric flask previously rinsed with 70% ethanol and dried in a laminar flow hood. Following filtration, each buffered (XXXV) solution was split into 9 aliquots in 5 mL serum vials previously rinsed with 70% ethanol and dried in a laminar flow hood. Filtration and preparation of aliquots were performed in a laminar flow hood. Of the nine aliquots, three aliquots were stored at each 40° C. and 60° C., two aliquots were stored at 25° C. and one aliquot was submitted for T0 testing. Samples were evaluated for pH, assay and related substances at T0 and, following 1 week, 2 weeks and 4 weeks of storage at 40° C. and 60° C. Samples stored at 25° C. served as controls to be analyzed if necessary

CCCNc1nc(NCCC)nc(N(C)OC)n1 [XXXV, N-(4,6-Bis-n-propylamino-[1,3,5]triazin-2-yl)-N,O-dimethyl-hydroxylamine]
pH dependence of impurity levels (40° C. and 60° C. storage, pH 2-3.6): impurity levels decreased significantly with increasing pH | impurity levels at pH 2 vs. impurity levels at pH 3.6 (pH range 2-3.6): ≥ 10 fold | Assay (target pH 2.0, 40° C. 1 wk): 0.959 | pH (target pH 2.0, 40° C. 1 wk): 2.00 | Impurities (target pH 2.0, 40° C. 1 wk): 0.99 | Assay (target pH 2.0, 40° C. 2 wk): 0.955 | pH (target pH 2.0, 40° C. 2 wk): 1.98 | Impurities (target pH 2.0, 40° C. 2 wk): 1.55 | Assay (target pH 2.0, 40° C. 4 wk): 0.956 | pH (target pH 2.0, 40° C. 4 wk): 1.98 | Impurities (target pH 2.0, 40° C. 4 wk): 2.84 | Assay (target pH 2.0, 60° C. 1 wk): 0.913 | pH (target pH 2.0, 60° C. 1 wk): 2.00 | Impurities (target pH 2.0, 60° C. 1 wk): 3.87 | Assay (target pH 2.0, 60° C. 2 wk): 0.851 | pH (target pH 2.0, 60° C. 2 wk): 1.97 | Impurities (target pH 2.0, 60° C. 2 wk): 7.56 | Assay (target pH 2.0, 60° C. 4 wk): 0.768 | pH (target pH 2.0, 60° C. 4 wk): 1.89 | Impurities (target pH 2.0, 60° C. 4 wk): 13.99 | Assay (target pH 2.0, initial): 0.981 | pH (target pH 2.0, initial): 2.00 | Impurities (target pH 2.0, initial): 0.14 | Assay (target pH 2.3, 40° C. 1 wk): 0.984 | pH (target pH 2.3, 40° C. 1 wk): 2.36 | Impurities (target pH 2.3, 40° C. 1 wk): 0.47 | Assay (target pH 2.3, 40° C. 2 wk): 0.993 | pH (target pH 2.3, 40° C. 2 wk): 2.32 | Impurities (target pH 2.3, 40° C. 2 wk): 0.63 | Assay (target pH 2.3, 40° C. 4 wk): 0.995 | pH (target pH 2.3, 40° C. 4 wk): 2.33 | Impurities (target pH 2.3, 40° C. 4 wk): 1.70 | Assay (target pH 2.3, 60° C. 1 wk): 0.961 | pH (target pH 2.3, 60° C. 1 wk): 2.36 | Impurities (target pH 2.3, 60° C. 1 wk): 1.81 | Assay (target pH 2.3, 60° C. 2 wk): 0.932 | pH (target pH 2.3, 60° C. 2 wk): 2.34 | Impurities (target pH 2.3, 60° C. 2 wk): 3.53 | Assay (target pH 2.3, 60° C. 4 wk): 0.916 | pH (target pH 2.3, 60° C. 4 wk): 2.28 | Impurities (target pH 2.3, 60° C. 4 wk): 6.30 | Assay (target pH 2.3, initial): 0.987 | pH (target pH 2.3, initial): 2.33 | Impurities (target pH 2.3, initial): 0.09 | Assay (target pH 2.7, 40° C. 1 wk): 0.981 | pH (target pH 2.7, 40° C. 1 wk): 2.73 | Impurities (target pH 2.7, 40° C. 1 wk): 0.22 | Assay (target pH 2.7, 40° C. 2 wk): 0.985 | pH (target pH 2.7, 40° C. 2 wk): 2.72 | Impurities (target pH 2.7, 40° C. 2 wk): 0.37 | Assay (target pH 2.7, 40° C. 4 wk): 1.019 | pH (target pH 2.7, 40° C. 4 wk): 2.73 | Impurities (target pH 2.7, 40° C. 4 wk): 0.61 | Assay (target pH 2.7, 60° C. 1 wk): 0.978 | pH (target pH 2.7, 60° C. 1 wk): 2.75 | Impurities (target pH 2.7, 60° C. 1 wk): 0.97 | Assay (target pH 2.7, 60° C. 2 wk): 1.144 | pH (target pH 2.7, 60° C. 2 wk): 2.74 | Impurities (target pH 2.7, 60° C. 2 wk): 1.76 | Assay (target pH 2.7, 60° C. 4 wk): 0.987 | pH (target pH 2.7, 60° C. 4 wk): 2.67 | Impurities (target pH 2.7, 60° C. 4 wk): 3.09 | Assay (target pH 2.7, initial): 0.987 | pH (target pH 2.7, initial): 2.72 | Assay (target pH 3.0, 40° C. 1 wk): 1.01 | pH (target pH 3.0, 40° C. 1 wk): 3.04 | Impurities (target pH 3.0, 40° C. 1 wk): 0.21 | Assay (target pH 3.0, 40° C. 2 wk): 0.987 | pH (target pH 3.0, 40° C. 2 wk): 3.05 | Impurities (target pH 3.0, 40° C. 2 wk): 0.34 | Assay (target pH 3.0, 40° C. 4 wk): 1.027 | pH (target pH 3.0, 40° C. 4 wk): 3.04 | Impurities (target pH 3.0, 40° C. 4 wk): 0.58 | Assay (target pH 3.0, 60° C. 1 wk): 0.991 | pH (target pH 3.0, 60° C. 1 wk): 3.05 | Impurities (target pH 3.0, 60° C. 1 wk): 0.61 | Assay (target pH 3.0, 60° C. 2 wk): 0.975 | Impurities (target pH 3.0, 60° C. 2 wk): 1.27 | Assay (target pH 3.0, 60° C. 4 wk): 0.987 | Impurities (target pH 3.0, 60° C. 4 wk): 1.82 | Assay (target pH 3.0, initial): 1.005 | pH (target pH 3.0, initial): 3.02 | Assay (target pH 3.3, 40° C. 1 wk): 1.02 | pH (target pH 3.3, 40° C. 1 wk): 3.35 | Assay (target pH 3.3, 40° C. 2 wk): 1.01 | pH (target pH 3.3, 40° C. 2 wk): 3.35 | Assay (target pH 3.3, 40° C. 4 wk): 1.047 | pH (target pH 3.3, 40° C. 4 wk): 3.34 | Impurities (target pH 3.3, 40° C. 4 wk): 0.25 | Assay (target pH 3.3, 60° C. 1 wk): 0.997 | pH (target pH 3.3, 60° C. 1 wk): 3.36 | Impurities (target pH 3.3, 60° C. 1 wk): 0.41 | Assay (target pH 3.3, 60° C. 2 wk): 0.995 | pH (target pH 3.3, 60° C. 2 wk): 3.37 | Impurities (target pH 3.3, 60° C. 2 wk): 0.69 | Assay (target pH 3.3, 60° C. 4 wk): 1.027 | pH (target pH 3.3, 60° C. 4 wk): 3.34 | Impurities (target pH 3.3, 60° C. 4 wk): 1.26 | Assay (target pH 3.3, initial): 1.019 | pH (target pH 3.3, initial): 3.31 | Assay (target pH 3.6, 40° C. 1 wk): 0.991 | pH (target pH 3.6, 40° C. 1 wk): 3.64 | Assay (target pH 3.6, 40° C. 2 wk): 0.985 | pH (target pH 3.6, 40° C. 2 wk): 3.70 | Assay (target pH 3.6, 40° C. 4 wk): 0.991 | pH (target pH 3.6, 40° C. 4 wk): 3.64 | Impurities (target pH 3.6, 40° C. 4 wk): 0.17 | Assay (target pH 3.6, 60° C. 1 wk): 0.979 | pH (target pH 3.6, 60° C. 1 wk): 3.65 | Impurities (target pH 3.6, 60° C. 1 wk): 0.36 | pH (target pH 3.6, 60° C. 2 wk): 3.70 | Impurities (target pH 3.6, 60° C. 2 wk): 0.62 | pH (target pH 3.6, 60° C. 4 wk): 3.64 | Impurities (target pH 3.6, 60° C. 4 wk): 0.99 | Assay (target pH 3.6, initial): 0.996 | pH (target pH 3.6, initial): 3.62 | Impurities (target pH 3.6, initial): 0.12

— US9162992B2, “Compounds and compositions for treatment of breathing control disorders or diseases” (GALLEON PHARMACEUTICALS, INC., priority 2010, dated 2015)
